Results as given in patent US20150224120A1, “COMPOSITIONS AND METHODS FOR TREATING HYPERPROLINEMIA-ASSOCIATED MENTAL DISORDERS” (priority 2011, published 2015).
“Also recorded” adds a separate entry of the source. Read-outs that look alike come from different tables or passages of the source.

What was measured:
plasma proline [1] = settings: previously reported (Jacquet et al., 2005); cited from earlier work
PRODH expression [2] = settings: bronchial smooth muscle cells, treated (n=3) vs untreated (n=3), p=0.01; cited from earlier work
[3] = male infants receiving supplements (≦2000 IU/day) during first year of life; cited from earlier work
plasma proline [4] = assay: Fasting plasma proline before and after oral Vitamin D supplementation; assay type: in vivo; settings: oral 2000 IU daily, five fasting measurements before and five over subsequent five days, p=0.059
Excerpt: Affymetrix microarray data was accessed via the NCBI GEO database, accession numbers GDS1847 (FIG. 4A) and GDS2628 (FIG. 4B). […] Five fasting plasma proline measurements were obtained prior to the initiation of Vitamin D supplementation (2000 IU daily), after which an additional five fasting plasma measurements were obtained over the subsequent five days.
As illustrated by FIG. 4, the biologically active form of vitamin D (1α,25-dihydroxyvitamin D3 [1α,25(OH)2D3]) is also a potent regulator of PRODH expression. […] Moreover, in vivo (FIG. 4C), proline levels are decreased by treatment with oral vitamin D.

[5] = women with high vs low dietary consumption; cited from earlier work
PRODH expression [6] = settings: intestinal epithelial cells, treated (n=5) vs untreated control cells (n=5), p=0.044 one-tailed, cited from earlier work
PRODH expression [7] = assay: Peripheral PRODH expression in first-episode never-medicated SZ patients pre and post treatment (Affymetrix U133v2.0 arrays); assay type: in vivo, human
Excerpt: Change in log PRODH were plotted for each subject prior to-(100%), and post-treatment onset. All of the subjects received risperidone. The mean time between blood draws was 8.3 days. […] There were no significant differences in time between blood draws for those with increased PRODH (n=3), versus those with no increase (n=3, p=0.2). […] In a linear regression model, PRODH percent change was a significant predictor of total Brief Psychiatric Rating Scale (BPRS) score approximately 8 days following treatment initiation (p=0.047), after adjusting for baseline total BPRS score. Furthermore, the linear relationship between PRODH change and adjusted BPRS score was highly significant (r=−0.92, p=0.025).
Exploratory analysis of PRODH expression levels were also performed in first-episode, never-medicated SZ patients (n=6). Male, first-episode, never-medicated SZ patients were recruited at the Bellevue Hospital CPEP. A 15 ml blood sample was collected at admission to the CPEP, and peripheral PRODH expression was measured using Affymetrix U133v2.0 arrays (PRODH is one of the 54,000 transcripts). A post-treatment measurement of PRODH expression was also obtained (mean time between blood draws=8.3 days).

Q: With CCCC(CCC)C(=O)O [valproic acid] as the compound, how does the “effect on plasma proline level” value (plasma proline [1]) read?
A: significant effect

Q: With C=C1/C(=C\C=C2/CCC[C@]3(C)[C@@H]([C@H](C)CCCC(C)(C)O)CC[C@@H]23)C[C@@H](O)C[C@@H]1O [1alpha,25-dihydroxy-vitamin-D3] as the compound, how does the “PRODH expression (probeset 214203_s_at)” value (PRODH expression [2]) read?
A: upregulation

Q: What does the source list for vitamin D?
A: risk of schizophrenia [3]: significantly reduced risk; PRODH expression (probeset 214203_s_at) (PRODH expression [2]): significantly upregulates; also recorded: upregulation; plasma proline following Vitamin D treatment (plasma proline [4]): trend for plasma proline to decrease; plasma proline following Vitamin D treatment (plasma proline [4]; listed as vitamin D): decreased; lower risk of psychosis-like symptoms [5]: 37%; PRODH expression (probeset 40042_r_at) (PRODH expression [6]): upregulated; PRODH expression (probeset 40042_r_at) (PRODH expression [6]; listed as vitamin D): significantly upregulates

Q: Which results are given for Cc1nc2n(c(=O)c1CCN1CCC(c3noc4cc(F)ccc34)CC1)CCCC2 [risperidone]?
A: PRODH expression post-treatment level (mean) (PRODH expression [7]; all subjects n=6, mean 8.3 days between blood draws, pre level 6.10±0.41, p=0.3): 6.24±0.35 expression units; decrease of PRODH expression after onset of treatment (PRODH expression [7]; no-change group, n=3, non-significant, p=0.15): 2.3%; change in PRODH expression between pre and post assay (PRODH expression [7]; subset of patients (n=3), p=0.034): significantly upregulated; mean percent change (increase) of PRODH expression after onset of treatment (PRODH expression [7]; subset of subjects with increase, n=3, p=0.04): 7.3%
